Tests used:
Assay in all cases: viability inhibition at highest dose (% inhibition); higher = more growth inhibition
BT-474 Tam1 = settings: 4-OH-tamoxifen in medium 1 µM; 72 h
Protocol: (§1)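 Percent inhibition of viability (CellTiter-Glo, 72 h) at the highest tested concentration (D5), normalised to DMSO (0%) and 100 µM benzethonium chloride (100%). Resistant lines and the 'in 1µM tamoxifen' arms were tested in 1 µM 4-OH-tamoxifen.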

BT-474 Tam2 = settings: 4-OH-tamoxifen in medium 1 µM; 72 h
Protocol: as §1

BT-474 = settings: 72 h
Protocol: as §1

MCF-7 Tam1 = settings: 4-OH-tamoxifen in medium 1 µM; 72 h
Protocol: as §1

MCF-7 = settings: 72 h
Protocol: as §1

T-47D Tam1 = settings: 4-OH-tamoxifen in medium 1 µM; 72 h
Protocol: as §1

T-47D Tam2 = settings: 4-OH-tamoxifen in medium 1 µM; 72 h
Protocol: as §1

T-47D = settings: 72 h
Protocol: as §1

ZR-75-1 Tam1 = settings: 4-OH-tamoxifen in medium 1 µM; 72 h
Protocol: as §1

ZR-75-1 Tam2 = settings: 4-OH-tamoxifen in medium 1 µM; 72 h
Protocol: as §1

ZR-75-1 = settings: 72 h
Protocol: as §1

Compound	viability inhibition at highest dose (BT-474 Tam1)	viability inhibition at highest dose (BT-474 Tam2)	viability inhibition at highest dose (BT-474; 4-OH-tamoxifen in medium 0 µM)	viability inhibition at highest dose (BT-474; 4-OH-tamoxifen in medium 1 µM)	viability inhibition at highest dose (MCF-7 Tam1)	viability inhibition at highest dose (MCF-7; 4-OH-tamoxifen in medium 0 µM)	viability inhibition at highest dose (MCF-7; 4-OH-tamoxifen in medium 1 µM)	viability inhibition at highest dose (T-47D Tam1)	viability inhibition at highest dose (T-47D Tam2)	viability inhibition at highest dose (T-47D; 4-OH-tamoxifen in medium 0 µM)	viability inhibition at highest dose (T-47D; 4-OH-tamoxifen in medium 1 µM)	viability inhibition at highest dose (ZR-75-1 Tam1)	viability inhibition at highest dose (ZR-75-1 Tam2)	viability inhibition at highest dose (ZR-75-1; 4-OH-tamoxifen in medium 0 µM)	viability inhibition at highest dose (ZR-75-1; 4-OH-tamoxifen in medium 1 µM)
CN1CCN(c2ccc3nc(-c4c(N)c5c(F)cccc5[nH]c4=O)[nH]c3c2)CC1 [Dovitinib (CHIR-258)] (drug 10000 nM)	-12.6	-10.4	-10.4	-18.2	-5.66	-32.5	-8.7	-4.27	4.9	-16.4	-8.28	0.00734	-6.37	-10.6	-9.07
O=C1CCC(N2C(=O)c3ccccc3C2=O)C(=O)N1 (stereo not given) [Thalidomide] (drug 10000 nM)	2.81	1.4	2.41	13.6	4.57	1.74	5.08	0.973	4.15	0.793	10.3	6.53	-1.28	5.91	12
CCCC(CCC)C(=O)O [Valproic acid] (drug 10000 nM)	4.24	-2.85	-9.64	-2.48	1.78	-31.2	-5.39	1.44	24.2	-15.5	12.5	3.1	-3.03	-14.3	1.2
CO[C@@H](C(=O)N1Cc2[nH]nc(NC(=O)c3ccc(N4CCN(C)CC4)cc3)c2C1)c1ccccc1 (drug 10000 nM)	-17.9	-18.2	-18.6	-36.3	8.32	20.9	7.45	38.4	34.4	29.4	17.6	-23.1	-19.5	-27.9	-21.1
CC[C@]1(O)C[C@@H]2CN(CCc3c([nH]c4ccccc34)[C@@](C(=O)OC)(c3cc4c(cc3OC)N(C)[C@H]3[C@@](O)(C(=O)OC)[C@H](OC(C)=O)[C@]5(CC)C=CCN6CC[C@]43[C@@H]65)C2)C1 [Vinblastine] (drug 1000 nM)	88	91.8	43.3	87.4	19.6	51.4	57.6	55.2	57.8	14.7	22.2	30.2	35.9	24.6	34.4

From the supplement of paper PMC4932681
